This note sets out measurements from patent US9273029B2, “Pyridine-and pyrazine derivatives” (Merck Patent GmbH, priority 2011, dated 2016).

SMILES strings stand for the structures.

In one experiment the target is TBK1 (Homo sapiens (Human), UniProt Q9UHD2). The experiment is described as follows: TBK1 cell assay: dose response inhibition of phospho-IRF3 @ Ser 386 in MDA-MB-468 cells. It counts as cell-based. To be noted: Poly(I:C) stimulation, nuclear phospho-IRF3 Ser386, read-out: TBK1 cell assay IC50. The text has this:
Dose Response Inhibition of Phospho-IRF3 @ Ser 386 cell/MDAMB468/INH/PHOS/IMAG/pIRF3
Treatment with Polyinosine-polycytidylic acid (poly(I:C), a synthetic analog of doublestranded RNA (dsRNA), a molecular pattern associated with viral infection which is recognized by Toll-like receptor 3 (TLR3) is used to induce TBK1/IKKe activity and IRF3 phosphorylation at Ser386.
• Day 1: MDA-MB-468 cells are detached with HyQ-Tase, counted, and seeded into a 384-well clear bottom TC-surface plate at density of 10,000 cells per well in a total volume of 35 ul complete medium. Alternatively cells are directly seeded from frozen vials. • Day 2: Cells are pre-treated with inhibitor compounds for 1 h prior to Poly(I:C) stimulation. After 2 h of incubation with Poly(I:C), cells are fixed in (para)formaldehyde (PFA) and permeabilized with methanol (MeOH). The cells are then blocked and incubated with an anti-pIRF3 antibody at 4 °C overnight. • Day 3: The primary antibody is washed off, an AlexaFluor488-conjugated secondary is added, cells are counterstained with propidium iodide followed by image acquisition on IMX Ultra high content reader.

For experiment [1], the target named is TANK binding kinase (TBK1) (Homo sapiens (Human), UniProt Q9UHD2). The experiment in a line: TBK1 enzyme assay (384-well Flashplate kinase assay). It counts as biochemical. The conditions noted are these: 10 μM ATP, 120 Min at 30° C. The protocol:
The kinase assay is performed as 384-well Flashplate assay (for e.g. Topcount measurement. 0.6 nM TANK binding kinase (TBK1), 800 nM biotinylated MELK-derived peptide (Biotin-Ah-Ah-[…]) SEQ ID NO: 2 and 10 μM ATP (spiked with 0.25 μCi ^33P-ATP/well) are incubated in a total volume of 50 μl (10 mM MOPS, 10 mM Mg-acetat, 0.1 mM EGTA, 1 mM DTT, 0.02% Brij35, 0.1% BSA, pH 7.5) with or without test compound for 120 Min at 30° C. The reaction is stopped with 25 μl 200 mM EDTA. After 30 Min at room temperature the liquid is removed and each well washed thrice with 100 μl 0.9% sodium chloride solution. Nonspecific reaction is determined in presence of 100 nM Staurosporine. Radioactivity is measured in a Topcount (PerkinElmer). Results (e.g. IC50-values) are calculated with program tools provided by the IT-department (e.g. AssayExplorer, Symyx).

For a further experiment, the target named is IKKε (Homo sapiens (Human), UniProt Q14164). The experiment in a line: IKKε kinase assay (384-well Flashplate). It counts as biochemical. To be noted: 10 μM ATP, 2 hours at 30° C.; read-out: IKKε enzyme assay IC50. The protocol:
IKKε—Kinase Assay (IKKepsilon)
The kinase assay is performed either as 384-well Flashplate assay (for e.g. Topcount measurement). 1 nM IKKε, 800 nM biotinylated IκBα(19-42) peptide (Biotin-C6-C6-[…]) SEQ ID NO: 1 and 10 μM ATP (spiked with 0.3 μCi ^33P-ATP/well) are incubated in a total volume of 50 μl (10 mM MOPS, 10 mM Mg-acetat, 0.1 mM EGTA, 1 mM Dithiothreitol,0.02% Brij35, 0.1% BSA, 0.1% BioStab, pH 7.5) with or without test compound for 2 hours at 30° C. The reaction is stopped with 25 μl 200 mM EDTA. After 30 Min at room temperature the liquid is removed and each well washed thrice with 100 μl 0.9% sodium chloride solution. Non-specific reaction is determined in presence of 3 μM MSC2119074 (BX-795). Radioactivity is measured with Topcount (PerkinElmer). Results (e.g. IC50-values) are calculated with program tools provided by the IT-department (e.g. AssayExplorer, Symyx).

Chain of TANK binding kinase (TBK1) (Q9UHD2 whole entry): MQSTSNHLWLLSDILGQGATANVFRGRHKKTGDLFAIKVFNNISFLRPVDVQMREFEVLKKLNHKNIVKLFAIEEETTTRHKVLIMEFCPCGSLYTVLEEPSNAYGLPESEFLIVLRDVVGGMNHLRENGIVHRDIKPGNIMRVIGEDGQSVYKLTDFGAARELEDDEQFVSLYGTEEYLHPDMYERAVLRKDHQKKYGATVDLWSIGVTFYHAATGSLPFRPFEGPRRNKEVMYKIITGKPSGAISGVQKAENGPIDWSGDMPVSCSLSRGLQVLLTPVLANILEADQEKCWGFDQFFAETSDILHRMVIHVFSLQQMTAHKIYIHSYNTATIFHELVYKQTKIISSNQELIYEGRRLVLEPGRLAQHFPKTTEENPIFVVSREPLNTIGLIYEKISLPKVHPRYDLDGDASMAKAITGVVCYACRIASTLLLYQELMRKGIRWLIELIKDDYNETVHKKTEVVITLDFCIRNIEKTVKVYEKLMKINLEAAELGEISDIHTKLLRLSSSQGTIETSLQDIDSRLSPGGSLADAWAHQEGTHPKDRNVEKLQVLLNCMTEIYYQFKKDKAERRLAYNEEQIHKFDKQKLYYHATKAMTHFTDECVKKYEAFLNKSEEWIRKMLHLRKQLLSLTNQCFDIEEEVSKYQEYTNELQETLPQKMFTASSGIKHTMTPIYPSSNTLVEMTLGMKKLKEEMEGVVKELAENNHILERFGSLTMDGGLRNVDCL
Chain of TBK1 (Q9UHD2 whole entry): as above
Chain of IKKε (Q14164 whole entry): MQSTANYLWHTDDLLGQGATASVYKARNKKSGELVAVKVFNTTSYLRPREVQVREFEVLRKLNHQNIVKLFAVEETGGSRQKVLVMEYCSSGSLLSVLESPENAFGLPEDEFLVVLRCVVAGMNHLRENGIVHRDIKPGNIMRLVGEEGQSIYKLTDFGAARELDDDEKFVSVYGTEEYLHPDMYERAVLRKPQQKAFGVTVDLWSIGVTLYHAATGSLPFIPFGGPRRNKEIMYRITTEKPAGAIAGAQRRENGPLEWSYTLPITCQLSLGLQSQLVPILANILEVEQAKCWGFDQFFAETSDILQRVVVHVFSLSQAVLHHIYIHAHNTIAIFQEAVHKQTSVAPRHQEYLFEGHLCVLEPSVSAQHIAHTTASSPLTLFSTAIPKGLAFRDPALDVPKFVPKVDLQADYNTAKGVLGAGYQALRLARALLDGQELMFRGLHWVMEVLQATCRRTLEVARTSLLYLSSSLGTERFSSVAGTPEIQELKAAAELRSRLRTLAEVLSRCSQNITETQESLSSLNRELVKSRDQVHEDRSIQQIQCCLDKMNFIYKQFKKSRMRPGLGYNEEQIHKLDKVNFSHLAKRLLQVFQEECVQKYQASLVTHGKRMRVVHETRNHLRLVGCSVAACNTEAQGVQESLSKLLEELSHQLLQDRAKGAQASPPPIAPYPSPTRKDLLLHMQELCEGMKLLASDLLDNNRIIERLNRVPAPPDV

By IC50 is commonly meant the point on the concentration scale where inhibition reaches its midpoint. Take `Nc1ncc(-c2ccc(N3CCNCC3)nc2)cc1C(=O)Nc1ccncc1` [Compound A11, 6-Amino-6′-piperazin-1-yl-[3,3′]bipyridinyl-5-carboxylic acid pyridin-4-ylamide]: the IC50 was found to be 9.8 µM at TBK1, 0.77 µM in experiment [1] and 0.54 µM at IKKε.

For `Nc1ncc(-c2ccc(CN3CCOCC3)s2)cc1C(=O)Nc1ccnnc1` [Compound A16, 2-Amino-5-(5-morpholin-4-ylmethyl-thiophen-2-yl)-N-pyridazin-4-yl-nicotinamide], the figures for the IC50 (at TBK1; in experiment [1]; on IKKε) were 9.3 µM, 0.24 µM and 0.11 µM, respectively.

`Cc1cc(NC(=O)c2cc(-c3cnn(Cc4ccccc4)c3)cnc2N)ccn1` [Compound A17, 2-Amino-5-(1-benzyl-1H-pyrazol-4-yl)-N-(2-methyl-pyridin-4-yl)-nicotinamide]: the IC50 on TBK1 amounted to 8.1 µM; in experiment [1], 0.33 µM; on IKKε, 0.34 µM.

As for `Cc1cnccc1NC(=O)c1cc(-c2ccc(CN3CCOCC3)s2)cnc1N` [Compound A21, 2-Amino-N-(3-methyl-pyridin-4-yl)-5-(5-morpholin-4-ylmethyl-thiophen-2-yl)-nicotinamide], the IC50 was found to be 7 µM at TBK1, 0.26 µM in experiment [1] and 0.91 µM on IKKε.
